Converted amounts (≈) assume the structure as drawn. Like-named read-outs stand apart in the source and are kept apart here. Non-standard residues stand in square brackets, D forms with d. Residues, ends and D or L forms follow the SMILES beside them. d1Nal = N[C@H](Cc1cccc2ccccc12)C(=O)O
Key:
[1] = test system: albino hairless guinea pigs Crl:IAF(HA)-hrBR (Outbred); test: Photosafety study: primary irritancy, phototoxicity, contact hypersensitivity, photoallergy; type: in vivo, guinea pig; details: single topical administration and UVR; XMP.629 up to 10 mg/mL (1.0%)
Method: XMP.629 was evaluated for photoallergic potential administered topically to hairless guinea pigs. Primary irritancy, phototoxicity (photoirritancy) and contact hypersensitivity were also evaluated in these studies.
Male CrI:IaF(HA)-hrBR (Outbred) albino hairless guinea pigs were assigned to 7 groups, five guinea pigs per group as outlined below.
XMP.629 was formulated as a gel. The phototoxicity comparator article was 8-methoxypsoralen (8-MOP) in methanol at concentrations of 0.1, 0.3 and 1.0 mg/mL. The contact hypersensitivity and photoallergy comparator article was 3,3′,4′,5′-tetrachlorosalicy/anilide (TCSA) in acetone:corn oil (4:1, v/v) at challenge concentrations of 0 (Vehicle), 10, and 30 mg/mL. The reagent and reagent vehicle were Freund's complete adjuvant (FCA) and sterile water for injection, USP, respectively.
The formulation administration and ultraviolet radiation (UVR) exposure regimens for each group in the study were as follows.
For all phases of the study, test articles, test article vehicles, comparator articles and comparator article vehicles were administered (0.3 ml) using a Hilltop chamber affixed to the guinea pig with dental dam overlaid with a Velcro® wrap for approximately 2.0 hours per administration.
Primary irritancy potential of the test articles and test article vehicles was evaluated in Group 1 guinea pigs. Three chambers (one per formulation dosage) were attached to the dorsal skin along the midline. After the administration period the chamber patches were removed and the application sites were gently wiped.
Cutaneous phototoxicity potential of the test articles and test article vehicles was evaluated in Group 2 guinea pigs. Group 3 guinea pigs were used as a comparator group with elicitation of phototoxicity with 8-MOP. Three chambers (one per formulation dosage) were attached to the dorsal skin along the midline and occluded. After the administration period the chamber patches were removed and the application sites were gently wiped. After wiping, Group 2 and 3 guinea pigs were exposed to solar-simulated UVR for approximately 2.25 hours.
For induction of contact hypersensitivity and photoallergy, a nuchal area of skin approximately 2.5 cm^2 was defined by intradermal injections with a formulation of sterile water and FCA in guinea pigs in Groups 4 through 7 under isoflurane/oxygen anesthesia. This skin area was then tape stripped five times. Formulations were topically administered via chambers as described in the study design table using one chamber attached to the nuchal area. After removal of the chambers the application sites were gently wiped and the nuchal site of Group 6 and 7 guinea pigs was exposed to UVR as above. Appropriate procedures for guinea pigs (with the exception of injection with FCA) were repeated once daily on Days 3, 5, 8, 10 and 12 of the induction phase.
On Day 22 (contact hypersensitivity and photoallergy challenge), formulations were topically applied to appropriate sites on guinea pigs in Groups 4 through 7 as described above. Three chambers (one per formulation dosage) were attached to the dorsal skin along the midline and occluded. The chambers were then removed and the application sites were gently wiped. Guinea pigs in Groups 6 and 7 were then exposed to UVR as above.
Observations for general appearance and clinical signs were made weekly throughout the study. […] Body weights were recorded at initiation of dosing for each phase, weekly thereafter and at sacrifice. […]

[2] = test system: Staphylococcus aureus; details: for MBC: agent alone
[3] = test system: E. coli; details: for MBC: agent alone
[4] = test system: P. acnes; details: strains UPC686 and UP2022; with XMP.629
[5] = test system: P. acnes strain (ATCC 6919); details: P. acnes ATCC 6919 passaged in the drug; level of the resistant culture sought/obtained
[6] = test system: P. acnes; test: microbe, parasite or virus in culture; details: Cutibacterium acnes
Method: An in vitro assessment of antibiotic activity in XMP.629 and various known antibiotics against a representative panel of bacterial strains associated with acne was conducted. A broth dilution methodology was employed using guidelines established by National Committee for Clinical Laboratory Standards (NCCLS) for anaerobic organisms to establish an antibacterial profile for XMP.629. Assays to determine the minimal bactericidal concentrations (MBC) and minimal inhibitory concentration (MIC) were conducted for XMP.629 and other known antibiotics.
Inoculum from a representative panel of bacterial strains associated with acne, such as P. acnes, P. avidum, P. granulosum, and Staphylococcus epidermis was prepared by suspending approximately 5-10 isolated bacterial colonies in pre-reduced MicroScan® Inoculum Water (Dade Behring, Deerfield, Ill.), and growing the bacterial suspension to log phase (approximately 48 hrs). An inoculum of between 1-5×10^6/mL was achieved by adding 100 μL of the suspension to 25 mL Brain Heart Infusion Broth (BHI) (Anaerobe Systems, Morgan Hill, Calif.).
A stock solution of XMP.629 dissolved in water at a concentration of 4.0 mg/mL was prepared. Dilute solutions of XMP.629 at concentrations ranging from about 1.25 to about 160 μg/mL were made in either water or formulation buffer (130 mM sodium chloride, 0.2% P103 (poloxamer 333), and 0.10% EDTA, pH 7.3).
Control tubes containing only water or formulation buffer were prepared for each isolate. Initial growth controls were determined by removing 10 μL from the water control tube and diluting it by 100 fold. From this dilution, 10 μL was used for inoculation and for spreading over the surface onto Laked Blood Agar (LBA) (Anaerobe Systems, Morgan Hill, Calif.) plates. The tubes and plates were incubated in an anaerobic atmosphere at 37° C. for 48 h.

[7] = test system: P. acnes; test: microbe, parasite or virus in culture; details: Cutibacterium acnes, clindamycin/erythromycin sensitive strain UP2022
[8] = test system: Escherichia coli; test: microbe, parasite or virus in culture; type: cell-based; details: Escherichia coli, Escherichia coli 0111:B4; read-out: Minimum Inhibitory Concentrations
Method: (§1) Acne vulgaris may involve a microbial consortium. Although P. acnes may be a prominent member of such a consortium, other uncharacterized bacteria may also participate. The microbial activity of XMP.629 as an acetate gel as described in Example 5 and other commonly used antibiotics was evaluated against a panel of human pathogens using standardized NCCLS protocols. […] Lesser potency was observed against the gram-negative organisms B. fragilis, B. cepacia, P. mirabilis and S. marcescens, which are often refractory to many antimicrobial compounds.

[9] = test system: Klebsiella pneumoniae; test: microbe, parasite or virus in culture; type: cell-based; details: Klebsiella pneumoniae, read-out: Minimum Inhibitory Concentrations
Method: as §1

[10] = test system: Proteus mirabilis; test: microbe, parasite or virus in culture; type: cell-based; details: Proteus mirabilis 29852; read-out: Minimum Inhibitory Concentrations
Method: as §1

[11] = test system: Serratia marcescens; test: microbe, parasite or virus in culture; type: cell-based; details: Serratia marcescens 13880; read-out: Minimum Inhibitory Concentrations
Method: as §1

[12] = test system: Pseudomonas aeruginosa; test: microbe, parasite or virus in culture; details: read-out: Minimum Inhibitory Concentrations, Pseudomonas aeruginosa 27853
[13] = test system: S. aureus; test: Comparison of XMP.629 with standard topical agents (MIC90/MBC); type: cell-based, Staphylococcus aureus; details: Staphylococcus aureus
Method: Control tubes containing only water or formulation buffer were prepared for each isolate. Initial growth controls were determined by removing 10 μL from the water control tube and diluting it by 100 fold. From this dilution, 10 μL was used for inoculation and for spreading over the surface onto Laked Blood Agar (LBA) (Anaerobe Systems, Morgan Hill, Calif.) plates. The tubes and plates were incubated in an anaerobic atmosphere at 37° C. for 48 h. […] MBC50 and 90 values represent where 50 and 90%, respectively, of the tested strain's MBC values are equal to or less than the indicated concentration.

[14] = test system: hemizygous Tg.AC mice; test: Mouse dermal carcinogenicity study (TPA in XMP.629 acetate gel placebo); type: in vivo
Method: XMP.629 was evaluated in a dermal carcinogenicity study to determine whether repeated dermal treatment with tetradeconyl phorbol acetate (TPA) in a XMP.629 acetate gel placebo formulation increased the incidence of skin tumors in hemizygous Tg.AC mice. […] Group 1 was treated with XMP.629 acetate gel placebo alone. A sixth group (Group 2) was treated with TPA dissolved in acetone at a dose level of 1.25 μg per 150 μL application and served as a reference standard. The animals were dosed via dermal application three times per week (e.g., Monday, Wednesday and Friday) for 12 consecutive weeks.
All animals were observed twice daily for moribundity and mortality. A hands-on examination was performed weekly at the time the animals were weighed on Day 1 and weekly thereafter. At that time, the animals were examined for clinical evidence of toxicity, carcinogenicity, and/or irritation at the site of application. […] The number of tumors at the site of application (SOA) and non-site of application (non-SOA) was recorded for each animal each week. At the end of the study (Day 85), the surviving animals were euthanized with CO2 asphyxiation. A necropsy was not performed.

[15] = 10 mg/kg oral gavage
[16] = in vivo; details: both, rat, plasma, po, 10 mg/kg, Bioavailability, 10 mg/kg oral gavage in distilled water
[17] = physchem
Method: In additional studies, a variety of formulations of XMP.629 were tested for stability under various temperatures, such as 25° C., 40° C., and 50° C., and at various time points, such as 0.5, 1, and 2 months.
The solubility of XMP.629 acetate in various solvents was also evaluated.
Solubility studies were conducted using a variety of solvent systems and/or skin penetration enhancers.

[18] = 0.3 mg/kg intravenous
[19] = rat, 0.3 mg/kg intravenous
Method: Whole body autoradiography studies measured the concentration of tritium in tissues at several time points following dosing. From these concentrations, area under the concentration vs. time curve (AUC) was calculated as a measure of overall exposure (see Table 25).

With `COc1c2occc2cc2ccc(=O)oc12` [8-MOP, 8-methoxypsoralen, reference compound] the phototoxicity [1] was “produced skin reactions indicative of cutaneous phototoxicity”.

With `CC1(C)S[C@@H]2[C@H](NC(=O)[C@H](N)c3ccccc3)C(=O)N2[C@H]1C(=O)O` [Ampicillin] the “MBC (antibiotic alone)” value ([2]; Staphylococcus aureus 342U-116) was 8 µg/mL (≈ 22.9 µM) and the “MBC (antibiotic alone)” value ([3]; E. coli 4104 LF) was 32 µg/mL (≈ 91.6 µM).

For `CO/N=C(\C(=O)N[C@@H]1C(=O)N2C(C(=O)O)=C(COC(N)=O)CS[C@H]12)c1ccco1` [Cefuroxime], the “MBC (antibiotic alone)” value ([3]; E. coli 4104 LF) was 8 µg/mL (≈ 18.9 µM).

For `CC(=O)OCC1=C(C(=O)O)N2C(=O)[C@@H](NC(=O)Cc3cccs3)[C@H]2SC1` [Cephalothin], the “MBC (antibiotic alone)” value ([2]; Staphylococcus aureus 342U-116) was 1 µg/mL (≈ 2.52 µM).

With `CCC[C@@H]1C[C@@H](C(=O)N[C@@H]([C@H]2O[C@H](SC)[C@H](O)[C@@H](O)[C@H]2O)[C@H](C)Cl)N(C)C1` [Clindamycin] the FIC [4] was 2, the MIC/MBC [5] was greater than 64 µg/mL and the MIC90 ([6]; read-out: MIC90 of Standard Topical Agents) was 16 µg/mL (≈ 37.6 µM). It also gave an MIC ([6]; read-out: MIC of clindamycin resistant strains) greater than 64 µg/mL and an MIC [7] of less than 1 µg/mL.

For `C[C@H]1c2cccc(O)c2C(=O)C2=C(O)[C@]3(O)C(=O)C(C(N)=O)=C(O)[C@@H](N(C)C)[C@@H]3[C@@H](O)[C@@H]21` [Doxycycline], the MIC [8] was 2 µg/mL (≈ 4.5 µM), the MIC ([9]; Klebsiella pneumoniae 19645) was 32 µg/mL (≈ 72 µM) and the MIC ([9]; Klebsiella pneumoniae 29011) was 32 µg/mL (≈ 72 µM). For the same molecule, the MIC [10] was 64 µg/mL (≈ 144 µM), the MIC [11] was 8 µg/mL (≈ 18 µM) and the MIC [12] was 32 µg/mL (≈ 72 µM).

Molecule `C/C(=C\C(=O)OCCCCCCCCC(=O)O)C[C@@H]1OC[C@H](C[C@@H]2O[C@H]2[C@@H](C)[C@H](C)O)[C@@H](O)[C@H]1O` [Mupirocin] has an MIC90 [13] of 4 µg/mL (≈ 7.99 µM).

With `CC1COc2c(N3CCN(C)CC3)c(F)cc3c(=O)c(C(=O)O)cn1c23` (stereo not drawn) [Ofloxacin] the “MBC (antibiotic alone)” value ([2]; Staphylococcus aureus 342U-116) was 1 µg/mL (≈ 2.77 µM) and the “MBC (antibiotic alone)” value ([3]; E. coli 4104 LF) was “≦0.125 μg/mL”.

In the case of `CCCCCCCCCCCCCC(=O)O[C@@H]1[C@@H](C)[C@@]2(O)[C@@H](C=C(CO)C[C@]3(O)C(=O)C(C)=C[C@@H]23)[C@@H]2C(C)(C)[C@]12OC(C)=O` [TPA, tetradeconyl phorbol acetate], the tumor development ([14]; 10 μg TPA per application, a single female) is reported as “one latent and one actual papilloma”, the “tumor development, females” value ([14]; 20 μg TPA per application) is reported as 4/4 and the “tumor development, males” value ([14]; 20 μg TPA per application) is reported as 2/5. The tumor development ([14]; 2.5 and 5.0 μg per application in XMP.629 acetate gel placebo) was “did not result in tumor development”.

In the case of `CC(C)C[C@@H](NC(=O)[C@H](N)CCCCN)C(=O)N[C@H](Cc1ccccc1)C(=O)N[C@H](CCCNC(=N)N)C(=O)N[C@H](Cc1cccc2ccccc12)C(=O)N[C@H](CCC(N)=O)C(=O)N[C@H](C)C(=O)N[C@H](CCCCN)C(=O)N[C@H](Cc1cccc2ccccc12)C(N)=O` [XMP.629 acetate] (H-[dK][dL][dF][dR][d1Nal][dQ][dA][dK][d1Nal]-NH2), the “Bioavailability, 5% glucose formulation versus distilled water” value [15] is reported as roughly 4 fold, the “peak concentrations, 5% glucose formulation versus distilled water” value [15] is reported as roughly 4 fold and the “time of peak concentrations following dosing” value [15] is reported as 10 to 20 min. It also gave a bioavailability [16] of roughly 0.001%, a solubility ([17]; ethanol, 200 proof) of less than 2200 µg/mL and a solubility ([17]; propylene glycol) of 10600 to 12500 µg/mL. For the same molecule, the solubility ([17]; purified water) was less than 1660 µg/mL, the solubility ([17]; sodium acetate buffer, pH 6) was greater than 1640 µg/mL and the solubility ([17]; transcutol P) was less than 170 µg/mL.

In the case of `CC(C)C[C@@H](NC(=O)[C@H](N)CCCCN)C(=O)N[C@H](Cc1ccccc1)C(=O)N[C@H](CCCNC(=N)N)C(=O)N[C@H](Cc1cccc2ccccc12)C(=O)N[C@H](CCC(N)=O)C(=O)N[C@H](C)C(=O)N[C@H](CCCCN)C(=O)N[C@H](Cc1cccc2ccccc12)C(N)=O` [[^3H]-labeled XMP.629] (H-[dK][dL][dF][dR][d1Nal][dQ][dA][dK][d1Nal]-NH2), the “Central compartment volume of distribution” value [18] is reported as roughly 0.12 L/kg, the alpha half-life [18] is reported as roughly 2 min and the beta half-life [18] is reported as roughly 45 min. The clearance [18] was roughly 6 mL/min/kg, the “plasma concentrations by 24 hours following dosing” value [18] was “approximately 0.005 μg/mL” and the terminal half-life [18] was roughly 480 min. For the same molecule, the average half-life ([18]; three compartment model) was “approximately 0.24 hours”, the AUC0-tlast ([19]; Adrenal) was 64.98 μg equivalents * hr/g and the AUC0-tlast ([19]; Blood) was 0.24 μg equivalents * hr/g. The AUC0-tlast ([19]; Bone marrow) was 82.65 μg equivalents * hr/g, the AUC0-tlast ([19]; Cervical lymph node) was 86.07 μg equivalents * hr/g and the AUC0-tlast ([19]; Eye uveal tract) was 1.14 μg equivalents * hr/g. For the same molecule, the AUC0-tlast ([19]; Kidney) was 20.20 μg equivalents * hr/g, the AUC0-tlast ([19]; Liver) was 191.86 μg equivalents * hr/g and the AUC0-tlast ([19]; Lung) was 29.25 μg equivalents * hr/g. For the same molecule, the AUC0-tlast ([19]; Popliteal lymph node) was 165.30 μg equivalents * hr/g, the AUC0-tlast ([19]; Renal medulla high) was 19.83 μg equivalents * hr/g and the AUC0-tlast ([19]; Spleen) was 60.94 μg equivalents * hr/g. For the same molecule, the AUC0-tlast ([19]; Thyroid) was 23.38 μg equivalents * hr/g.

In the case of Neomycin, the “MBC (antibiotic alone)” value ([2]; Staphylococcus aureus 342U-116) is reported as 1 µg/mL and the “MBC (antibiotic alone)” value ([3]; E. coli 4104 LF) is reported as 1 µg/mL.

In the case of Penicillin, the MBC ([2]; Staphylococcus aureus 076U-550) is reported as less than 0.06 µg/mL, the MBC ([2]; Staphylococcus aureus 230U-579) is reported as greater than 10 µg/mL and the MBC ([2]; Staphylococcus aureus 314U-148) is reported as greater than 10 µg/mL. The MBC ([2]; Staphylococcus aureus 342U-116) was greater than 10 µg/mL, the MBC ([2]; Staphylococcus aureus 15031-1857) was greater than 10 µg/mL and the MBC ([3]; E. coli 706U2-1081) was greater than 10 µg/mL. For the same molecule, the MBC ([3]; E. coli 4104 LF) was greater than 10 µg/mL.
